Source: ChEMBL document CHEMBL4000186, “Design and synthesis of novel 2-substituted 11-keto-boswellic acid heterocyclic derivatives as anti-prostate cancer agents with Pin1 inhibition ability” (Eur J Med Chem, 2017)

Experiments:
[1] = test system: PC-3; experiment: Induction of apoptosis in human PC3 cells assessed as decrease in pro-caspase 8 level measured after 24 hrs by Western blot method; format: functional, cell-based
[2] = test system: PC-3; experiment: Cell cycle arrest in human PC3 cells assessed as accumulation at G0/G1 phase at 5 uM after 12 hrs by propidium iodide staining based flow cytometry (reference value: 65.6 %); format: functional
[3] = test system: PC-3; experiment: Induction of apoptosis in human PC3 cells assessed as decrease in pro-caspase 3 level measured after 24 hrs by Western blot method; format: functional, cell-based
[4] = test system: PC-3; experiment: Cell cycle arrest in human PC3 cells assessed as accumulation at sub G1 phase at 2.5 uM after 12 hrs by propidium iodide staining based flow cytometry (reference value: 1.6 %); format: functional
[5] = test system: PC-3; experiment: Cell cycle arrest in human PC3 cells assessed as accumulation at G2/M phase at 1 uM after 12 hrs by propidium iodide staining based flow cytometry (reference value: 22.4 %); format: functional
[6] = test system: PC-3; experiment: Cell cycle arrest in human PC3 cells assessed as accumulation at G2/M phase at 2.5 uM after 24 hrs by propidium iodide staining based flow cytometry (reference value: 22.7 %); format: functional
[7] = test system: PC-3; experiment: Cell cycle arrest in human PC3 cells assessed as accumulation at sub G1 phase at 5 uM after 24 hrs by propidium iodide staining based flow cytometry (reference value: 1.9 %); format: functional
[8] = test system: LNCaP; experiment: Anti-proliferative activity against human LNCAP cells measured after 96 hrs by MTT assay; format: functional
[9] = test system: PC-3; experiment: Cell cycle arrest in human PC3 cells assessed as accumulation at sub G1 phase at 1 uM after 12 hrs by propidium iodide staining based flow cytometry (reference value: 1.6 %); format: functional
[10] = test system: PC-3; experiment: Induction of apoptosis in human PC3 cells assessed as downregulation of c-FLIP expression measured after 24 hrs by Western blot method; format: functional, cell-based
[11] = test system: PC-3; experiment: Induction of apoptosis in human PC3 cells assessed as induction of NOXA expression measured after 24 hrs by Western blot method; format: functional, cell-based
[12] = test system: PC-3; experiment: Cell cycle arrest in human PC3 cells assessed as accumulation at G0/G1 phase at 2.5 uM after 12 hrs by propidium iodide staining based flow cytometry (reference value: 65.6 %); format: functional
[13] = test system: PC-3; experiment: Cell cycle arrest in human PC3 cells assessed as accumulation at G2/M phase at 2.5 uM after 12 hrs by propidium iodide staining based flow cytometry (reference value: 22.4 %); format: functional
[14] = biological target: T1, Peptidyl-prolyl cis-trans isomerase NIMA-interacting 1 (Homo sapiens, UniProt Q13526); experiment: Inhibition of Pin1 in human PC3 cells assessed as downregulation of cyclin D1 expression measured after 24 hrs by Western blot method; format: cell-based
T1 sequence (Q13526 whole entry): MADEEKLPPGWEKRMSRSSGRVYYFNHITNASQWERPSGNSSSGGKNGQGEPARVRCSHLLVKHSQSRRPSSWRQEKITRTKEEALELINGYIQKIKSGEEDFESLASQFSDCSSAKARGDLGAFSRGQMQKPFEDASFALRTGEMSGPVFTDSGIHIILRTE

[15] = test system: PC-3; experiment: Cell cycle arrest in human PC3 cells assessed as accumulation at G0/G1 phase at 2.5 uM after 24 hrs by propidium iodide staining based flow cytometry (reference value: 63.9 %); format: functional
[16] = test system: PC-3; experiment: Cell cycle arrest in human PC3 cells assessed as accumulation at G2/M phase at 1 uM after 24 hrs by propidium iodide staining based flow cytometry (reference value: 22.7 %); format: functional
[17] = test system: PC-3; experiment: Cell cycle arrest in human PC3 cells assessed as accumulation at G2/M phase at 5 uM after 24 hrs by propidium iodide staining based flow cytometry (reference value: 22.7 %); format: functional
[18] = test system: PC-3; experiment: Induction of apoptosis in human PC3 cells assessed as downregulation of Mcl-1 expression measured after 24 hrs by Western blot method; format: functional, cell-based
[19] = test system: PC-3; experiment: Cell cycle arrest in human PC3 cells assessed as accumulation at G0/G1 phase at 1 uM after 12 hrs by propidium iodide staining based flow cytometry (reference value: 65.6 %); format: functional
[20] = test system: PC-3; experiment: Cell cycle arrest in human PC3 cells assessed as accumulation at sub G1 phase at 1 uM after 24 hrs by propidium iodide staining based flow cytometry (reference value: 1.9 %); format: functional
[21] = test system: PC-3; experiment: Anti-proliferative activity against human PC3 cells measured after 96 hrs by MTT assay; format: functional; conditions: PC-3, 96 h
[22] = test system: PC-3; experiment: Cell cycle arrest in human PC3 cells assessed as accumulation at sub G1 phase at 2.5 uM after 24 hrs by propidium iodide staining based flow cytometry (reference value: 1.9 %); format: functional
[23] = test system: PC-3; experiment: Cell cycle arrest in human PC3 cells assessed as accumulation at G2/M phase at 5 uM after 12 hrs by propidium iodide staining based flow cytometry (reference value: 22.4 %); format: functional
[24] = biological target: T1, Peptidyl-prolyl cis-trans isomerase NIMA-interacting 1; experiment: Inhibition of Pin1 (unknown origin) using Suc-Ala-Glu-cis-Pro-Phe-4-nitroanilide as substrate preincubated for 30 mins followed by substrate addition measured for 90 secs by protease-enzyme coupled assay
[25] = test system: PC-3; experiment: Induction of apoptosis in human PC3 cells assessed as decrease in pro-caspase 9 level measured after 24 hrs by Western blot method; format: functional, cell-based
[26] = test system: PC-3; experiment: Cell cycle arrest in human PC3 cells assessed as accumulation at sub G1 phase at 5 uM after 12 hrs by propidium iodide staining based flow cytometry (reference value: 1.6 %); format: functional
[27] = test system: PC-3; experiment: Cell cycle arrest in human PC3 cells assessed as accumulation at G0/G1 phase at 1 uM after 24 hrs by propidium iodide staining based flow cytometry (reference value: 63.9 %); format: functional
[28] = test system: PC-3; experiment: Cell cycle arrest in human PC3 cells assessed as accumulation at G0/G1 phase at 5 uM after 24 hrs by propidium iodide staining based flow cytometry (reference value: 63.9 %); format: functional

For C[C@H]1[C@H](C)CC[C@]2(C)CC[C@]3(C)C(=CC(=O)[C@@H]4[C@@]5(C)C=C(C#N)C(=O)[C@](C)(C(=O)N6CCNCC6)[C@@H]5CC[C@]43C)[C@H]12, the Activity [1] was “Dose-dependent effect”, the Activity [2] was 47.8% and the Activity [3] was “Dose-dependent effect”. The Activity [4] was 10.2%, the Activity [5] was 26.1% and the Activity [6] was 22%. For the same molecule, the Activity [7] was 88.1%, the GI50 [8] was 270 nM and the Activity [9] was 2.7%. For the same molecule, the Activity [10] was “Dose-dependent effect”, the Activity [11] was “Dose-dependent effect” and the Activity [12] was 52.2%. For the same molecule, the Activity [13] was 27.6%, the inhibition [14] was “Dose-dependent effect” and the Activity [15] was 33.7%. For the same molecule, the Activity [16] was 29.7%, the Activity [17] was 1.8% and the Activity [18] was “Dose-dependent effect”. For the same molecule, the Activity [19] was 58.5%, the Activity [20] was 8% and the GI50 [21] was 40 nM. The Activity [22] was 34.6%, the Activity [23] was 22.8% and the IC50 [24] was 3.57 µM. For the same molecule, the Activity [25] was “Dose-dependent effect”, the Activity [26] was 19.5% and the Activity [27] was 45.4%. The Activity [28] was 3.7%.
